Source: patent US20220226270A1, “VERY-LONG-CHAIN POLYUNSATURATED FATTY ACIDS, ELOVANOID HYDROXYLATED DERIVATIVES, AND METHODS OF USE” (Board of Supervisors of Louisiana State University and …, priority 2019, published 2022)

Assays:
ARPE-19 cells under UOS = test: Western blot of pro-survival and pro-apoptotic proteins in ARPE-19 cells under UOS; format: cell-based, human; details: for Bax protein / Bid protein / Bim protein: Western blot, UOS; for Prohibitin (type-1) expression (ELV): sodium salts and methyl ester forms, concentration-dependent, 100-200 nM; for effect of 15-LOX-1 inhibitor on VLC-PUFA-induced Iduna expression: FIG. 7D
Description: (§1) ARPE19 cells at 75-80% confluence (72 h growth in DMEM/F12+10% FBS) in 6-well plates were serum-starved for 8 h before exposure. The serum-starved cells were treated with TNF-α (Sigma-Aldrich, St. Louis, Mo.) (10 ng/ml) and H2O2 (600 μM) to induce oxidative stress and challenged with increasing concentrations (50-500 nM) of VLC-PUFA (C32:6n3 and C34:6n3) simultaneously with oxidative stress for 16 h (apoptosis) and 6 h (Western-blot) before detection of apoptosis and harvesting for protein analysis. In some experiments, DHA at a concentration of 100 nM and 15-LOX-1 inhibitor PD146176 at a concentration of 1 μM was added to treat the RPE cells under stress. Cell extracts were made and protein concentrations adjusted by Bio-Rad (Hercules, Calif.) protein reagent and used for Western blot analysis.
Analysis of Proteins: Bcl-2 family proteins, SIRT1 and Proinhibitin (type-1), and Iduna proteins were analyze by Western blot analysis. In brief, 20-25 μg equivalents of each cell extracts were subject to electrophoresis on a 4-12% gel (Promega) at 125 V for 2 h. The proteins were transferred to nitrocellulose membrane by I-blot transfer apparatus. The membranes were subjected to treatment with primary antibodies specific for Bcl-2, Bcl-xL, Bax, Bid, Bim, SIRT1 and Prohibitin (type-1) (Santa Cruz Biotechnology) and Iduna antibody (Neuro-Mab Lab, UCLA, Los Angeles, Calif.) overnight at 4° C. and probed for 45 mins with secondary antibody, goat anti-mouse Ig:horseradish peroxidase, and horseradish peroxidase-conjugated anti-biotin antibody, and then proteins were evaluated by using an ECL kit (Amersham).

[1] = system: cerebral cortical mixed neuronal cells; test: NMDA excitotoxicity in cerebral cortical mixed neuronal cultures; format: cell-based, rat; details: for NMDA-induced neuronal death: NMDA 25, 50 or 100 μM for 12 h, ELV (Na or Me) 200 nM or 500 nM added simultaneously
From the text: Primary cultures of cortical neurons: Primary cultures of cortical and hippocampal neurons were harvested from 18-day-old embryos (E18) taken from timed-pregnant, two-month-old Sprague-Dawley (SD) rats (Charles River Lab., Wilmington, Mass.). Briefly, timed-pregnant SD rats were euthanized and embryos were collected in sterile conditions. Embryonic brains were dissected out by forceps on ice and placed in a petri dish containing ice-cold Hank's Balanced Salt Solution (HBSS) (GIBCO). Meninges were removed under a dissecting microscope and cortical tissues were chopped into small pieces with micro-spring scissors. These tissues were transferred to 15 ml tubes containing trypsin-EDTA (0.025% in HBSS) and DNase I. The tubes were incubated in 37° C. chamber for 15 mins and were agitated every 5 mins. After stopping the trypsinization with 5 ml 10% FBS, these tissues were triturated 15 times with a fire polished Pasteur pipet. Cell clumps were left to settle for 2 mins and the supernatant was transferred to a 15 ml Eppendorf tube. The supernatant was filtered through a 70 μm pore-sized filter (Corning cell strainer) and centrifuged for 5 mins at 1000 rpm. The cells were then resuspended in Neurobasal medium (GIBCO) containing 2% B27 (GIBCO) and 2% N2 (GIBCO) supplements, along with 0.5 mM glutamine, 50 U/ml penicillin/streptomycin.
Cells were counted using a Neubauer hemocytometer. 1×10^6 cells were seeded on poly-D-lysine-coated 12 well cell culture dish (CORNING) and cultured in incubator (37° C., 5% CO2). Culture medium was first replaced after 24 h, then half of the medium was replaced with fresh medium every three days. As a result, approximately, 90% purity of neurons was obtained as determined by class-III-β tubulin, GFAP and Hoechst 33258 staining. Cells were maintained in culture for about 2 weeks until they were exposed to uncompensated oxidative stress, OGD, or NMDA excitotoxicity.
After 90 mins of OGD exposure, cells were returned to the original medium (Neurobasal medium (GIBCO) containing 2% B27 (GIBCO) and 2% N2 (GIBCO) supplements, along with 0.5 mM glutamine, 50 U/ml penicillin/streptomycin) and placed in a normoxic chamber (37° C., 5% CO2) for 2 h. Then the medium was changed with medium containing either ELV-N32 or ELV-N34 [500 nM] and maintained in a normoxic chamber (37° C., 5% CO2) for 12 h, after which cells were sampled and assayed for cell viability using different methods as previously described (25-28). Cerebral cortical mixed neuronal cells or hippocampal cells in culture were exposed to either NMDA or uncompensated oxidative stress (UOS) for 12 h by addition of either NMDA (25 μM, 50 μM, or 100 μM) concentration or by the addition of TNFα (10 ng/mL) and H2O2 (50 μM, 100 μM, or 200 μM). Cell viability and neuroprotection in the presence of ELV-N32, ELV-N34, 32:6, or 34:6 were assayed after 12 h.
Hoechst staining and unbiased image analysis: Cells were washed with 1× Dulbecco's Phosphate Buffered Saline (DPBS) containing no calcium or magnesium (GIBCO) and fixed for 10 mins using ice-cold 4% paraformaldehyde (PFA) followed by 15 mins incubation in 100% methanol. Cells were washed with 1× Phosphate Buffered Saline (PBS) pH 7.4 (GIBCO) and incubated in PBS containing 20 μM Hoechst 33258 (Molecular Probes) for 20 mins. Cells were then washed 3 times with 1× PBS and stored in 1× PBS at 4° C. until they were imaged for microscopy.
One 4×4 tile mosaic was acquired from the center of each well using a Zeiss 510 Meta laser confocal microscope and LSM 510 Meta software. Images were imported into image analysis software ImageJ (National Institutes of Health, Bethesda, Md.) and batch processed using custom macros. An Otsu auto threshold was applied to each image of Hoechst-stained nuclei, and the area of each detected object was recorded. Objects with areas <10 μm^2 were excluded from analysis. To estimate percentage non-pyknotic nuclei, a size cutoff value was chosen above which objects were assumed to be non-pyknotic. […]

[2] = system: mice sub-retinally injected with OAβ; test: Oligomeric Aβ (OAβ)-induced RPE senescence and retinal degeneration, sub-retinal injection; format: in vivo, mouse; details: 200 ng co-injected with 10 μM OAβ, 2 μl sub-retinal
From the text: As shown in FIGS. 14A-14C, elovanoids (ELV) counteract AR peptide-induced retinal pigment epithelial cell senescence progression. Aβ42, an end product of the amyloidogenic pathway, is a component of drusen in age-related macular degeneration (AMD), and of senile plaques in Alzheimer's disease (AD). To mimic the effect of OAβ in vivo, 6-month-old mice were used and sub-retinally injected with OAβ alone, OAβ+ELVs and ELVs alone. The no injection mice were used as negative control while the PBS injected mice were used as the sham. The injection volume was 2 μl containing of PBS, 10 μM of OAβ, 10 μM of OAβ+200 ng ELV-32, 200 ng ELV-32 alone, 10 μM of OAβ+200 ng ELV-34 or 200 ng ELV-34 alone. At day 3 after injection, mRNA from eyecup was isolated and analyzed the gene expression using q-PCR. Then, at day 7, the mice were subjected to Optical Coherence Tomography (OCT) analysis and then the eyes were enucleated and processed for histology, whole mount RPE staining, and western blotting (WB). OCT and histology uncovers that in OAβ induced retinal degeneration, the thickness of retina was thinner in OAβ injected group when compared to the controls as well as ELVs treatment groups.

primary human RPE cells = test: UOS-induced cell death in primary human RPE cells (Hoechst staining); format: cell-based; details: UOS with H2O2 (800 μM), 16 h; VLC-PUFAs 3 μM each, NPD1 200 nM; UOS alone 50% cell death
Description: Exposure of RPE cells to UOS and VLC-PUFA: For cell viability assay experiments hRPE cells were treated concomitantly with NPD1 (200 nM), 32-6, 34-6 (3 μM each) fatty acids or both 32-6 and 34-6 simultaneously. The hRPE medium was supplemented with 3 μM of 32-6 and 34-6 for the entire duration of the experiment. 15 lox-1 inhibitor (10 μM) was added to the cells 1 hour prior the OS induction and kept throughout the experiment. Cells were fixed with 4% PFA and stained with Hoescht.
(§2) To assess cell death, hRPE and ARPE-19 cells were fixed with methanol for 15 mins, washed with 1× PBS then loaded with 2 μM Hoechst dissolved in a Locke's solution (Promega) and incubated for another 15 mins before imaging. Cells were then viewed by using a Zeiss LSM 510 confocal microscope under UV fluorescence. Images were recorded and cell apoptosis was assessed by using an automated unbiased method.
To test the efficacy of 32:6n3 and 34:6n3 VLC-PUFAs to modulate human RPE cell homeostasis and survival rates, human RPE cells undergoing UOS were incubated with both VLC-PUFAs (3 μM each) and NPD1 (200 nM) 16 h. The addition of H2O2 (800 μM) induced apoptosis (50% cell death).
hRPE cells, formerly serum deprived for 12 h, were incubated with the 15 lipoxygenase 1 (15-LOX-1) inhibitor (PD146176) (10 μM for 1 h), then bathed with 600 μM H2O2/TNF-α in conjunction with a mixture of 32:6n3 and 34:6n3 (3 μM each) for 16 h. The 15-LOX-1 inhibitor sensitizes cells; therefore, a lower concentration of H2O2 than in the cytoprotection experiment was used.

ARPE-19 cells = test: UOS-induced apoptosis in ARPE-19 cells (Hoechst-positive pyknotic cells); format: cell-based, human; details: inhibitor 1 μM, RPE cells undergoing UOS
Description: as §1, §2

Row | Compound | Bax protein (ARPE-19 cells under UOS) | Bid protein (ARPE-19 cells under UOS) | Bim protein (ARPE-19 cells under UOS) | Prohibitin (type-1) expression (ELV) (ARPE-19 cells under UOS) | NMDA-induced neuronal death [1] | protection of RPE and retina from OAβ induced senescence [2] | also measured
1 | CC/C=C\C[C@H](O)\C=C/C=C/C=C/[C@H](O)C/C=C\C/C=C\CCCCCCCCCCCCC(=O)O [ELV-N32, (14Z,17Z,20R,21E,23E,25Z,27S,29Z)-20,27-dihydroxydo-triaconta-14,17,21,23,25,29-hexaenoic acid] | decreased | decreased | decreased | upregulated | compensated for | protect RPE and retina | 
2 | CC/C=C\C[C@H](O)\C=C/C=C/C=C/[C@H](O)C/C=C\C/C=C\CCCCCCCCCCCCCCC(=O)O [ELV-N34, (16Z,19Z,22R,23E,25E,27Z, 29S,31Z)-22,29-dihydroxytetra-triaconta-16,19,23,25,27,31-hexaenoic acid] | decreased | decreased | decreased | upregulated | compensated for | protect RPE and retina | 
3 | CC/C=C\C[C@H](O)\C=C/C=C/C=C/[C@H](O)C/C=C\C/C=C\CCC(=O)O [NPD1, 10R,17S-dihydroxy-docosa-4Z,7Z,11E,13E,15Z,19Z-hexaenoic acid, reference compound] |  |  |  |  |  |  | cell death (apoptosis) (primary human RPE cells): 11%
4 | c1ccc2c(c1)SCc1c-2[nH]c2ccccc12 [PD146176, reference compound] |  |  |  |  |  |  | effect of 15-LOX-1 inhibitor on ELV-mediated inhibition of apoptosis (ARPE-19 cells): compensate for ELV-mediated inhibition of apoptosis; SIRT1 expression with VLC-PUFA in the presence of 15-LOX-1 inhibitor (ARPE-19 cells under UOS; FIG. 7C): augmented; effect of 15-LOX-1 inhibitor on VLC-PUFA-induced Iduna expression (ARPE-19 cells under UOS): attenuates; effect of 15-LOX-1 inhibitor on VLC-PUFA-induced Iduna expression (ARPE-19 cells under UOS; listed as 15-LOX-1 inhibitor): unaffected; effect of 15-LOX-1 inhibitor on ELV-induced protein upregulation (Iduna) (ARPE-19 cells under UOS; inhibitor 1 μM): blocked these effects
5 | MK801 maleate [reference compound] |  |  |  |  |  |  | NMDA excitotoxicity ([1]; 10 μM antagonist): overcome
